For the assay, the system named is L1210 leukemia ip in BDF1 mice, survival T/C. Description: NCI In Vivo Anticancer Drug Screen. Data for tumor model L1210 Leukemia (intraperitoneal) in B6D2F1 (BDF1) mice. The note with it: endpoint: mean survival time, higher = longer survival. In outline:
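Antitumor effect is assessed in tumor-bearing animals. Survival in the compound arm is compared with a vehicle-dosed control arm and expressed as their quotient.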

Setting [1] is: dose: 100.0 mg/kg/injection, schedule: Q04DX003 (ip), vehicle: Klucel (hydroxypropylcellulose) (HPC).
[2] abbreviates: dose: 200.0 mg/kg/injection, schedule: Q04DX003 (ip), vehicle: Klucel (hydroxypropylcellulose) (HPC).

The structures appear in SMILES notation. Several values for one entry are separate records, joined by “and”; a condition that tells them apart may be missing. Identical values can stand only once. Toxic doses and inconclusive results are not listed.

In the case of `Cn1c(CCCC(=O)O)nc2cc(N(CCCl)CCCl)ccc21`, the T/C (dose: 2.5 mg/kg/injection, schedule: Q01DX001 (ip), vehicle: other) was 101 % of control; the T/C (dose: 2.5 mg/kg/injection, schedule: Q01DX009 (ip), vehicle: other) is 111 % of control; the T/C (dose: 4.37 mg/kg/injection, schedule: Q01DX001 (ip), vehicle: saline) was 106 % of control; the T/C (dose: 4.37 mg/kg/injection, schedule: Q04DX003 (ip), vehicle: saline) is 115 % of control; the T/C (dose: 5.0 mg/kg/injection, schedule: Q01DX001 (ip), vehicle: other) is 109 % of control; the T/C (dose: 5.0 mg/kg/injection, schedule: Q01DX009 (ip), vehicle: Klucel (hydroxypropylcellulose) (HPC)) was 117 % of control. Also, the T/C was 117 % of control (dose: 5.0 mg/kg/injection, schedule: Q01DX009 (ip), vehicle: other); 120 % of control (dose: 5.0 mg/kg/injection, schedule: Q04DX003 (ip), vehicle: other); 110 % of control (dose: 6.6 mg/kg/injection, schedule: Q01DX009 (ip), vehicle: Klucel (hydroxypropylcellulose) (HPC)); 117 % of control (dose: 8.75 mg/kg/injection, schedule: Q01DX001 (ip), vehicle: saline); 123 % of control (dose: 8.75 mg/kg/injection, schedule: Q04DX003 (ip), vehicle: saline); 111 % of control and 124 % of control (dose: 10.0 mg/kg/injection, schedule: Q01DX001 (ip), vehicle: other). The T/C (dose: 10.0 mg/kg/injection, schedule: Q01DX009 (ip), vehicle: acetone) is 114 % of control; the T/C (dose: 10.0 mg/kg/injection, schedule: Q01DX009 (ip), vehicle: other) is 120 % of control; the T/C (dose: 10.0 mg/kg/injection, schedule: Q04DX003 (ip), vehicle: Klucel (hydroxypropylcellulose) (HPC)) is 117 % of control; the T/C (dose: 10.0 mg/kg/injection, schedule: Q04DX003 (ip), vehicle: other) is 118 % of control; the T/C (dose: 12.5 mg/kg/injection, schedule: Q01DX001 (ip), vehicle: saline) was 116 % of control; the T/C (dose: 17.5 mg/kg/injection, schedule: Q01DX001 (ip), vehicle: saline) was 116 % of control. The T/C by setting is: (dose: 17.5 mg/kg/injection, schedule: Q04DX003 (ip), vehicle: saline) 116 % of control; (dose: 20.0 mg/kg/injection, schedule: Q01DX001 (ip), vehicle: carboxymethylcellulose (CMC)) 117 % of control; (dose: 20.0 mg/kg/injection, schedule: Q01DX001 (ip), vehicle: other) 122 % of control; (dose: 20.0 mg/kg/injection, schedule: Q01DX009 (ip), vehicle: Klucel (hydroxypropylcellulose) (HPC)) 117 % of control; (dose: 20.0 mg/kg/injection, schedule: Q01DX009 (ip), vehicle: acetone) 110 % of control; (dose: 20.0 mg/kg/injection, schedule: Q04DX003 (ip), vehicle: Klucel (hydroxypropylcellulose) (HPC)) 119 % of control. Besides, the T/C is, setting by setting: (dose: 20.0 mg/kg/injection, schedule: Q04DX003 (ip), vehicle: other) 118 % of control; (dose: 25.0 mg/kg/injection, schedule: Q01DX001 (ip), vehicle: other) 119 % of control; (dose: 25.0 mg/kg/injection, schedule: Q01DX001 (ip), vehicle: saline) 115 % of control; (dose: 25.0 mg/kg/injection, schedule: Q01DX009 (ip), vehicle: Klucel (hydroxypropylcellulose) (HPC)) 89 % of control; (dose: 26.4 mg/kg/injection, schedule: Q04DX003 (ip), vehicle: saline) 124 % of control; (dose: 35.0 mg/kg/injection, schedule: Q01DX001 (ip), vehicle: Klucel (hydroxypropylcellulose) (HPC)) 115 % of control. Moreover, the T/C by setting is: (dose: 40.0 mg/kg/injection, schedule: Q01DX001 (ip), vehicle: carboxymethylcellulose (CMC)) 117 % of control; (dose: 40.0 mg/kg/injection, schedule: Q01DX009 (ip), vehicle: Klucel (hydroxypropylcellulose) (HPC)) 87 % of control; (dose: 40.0 mg/kg/injection, schedule: Q01DX009 (ip), vehicle: other) 88 % of control; (dose: 40.0 mg/kg/injection, schedule: Q04DX003 (ip), vehicle: other) 115 % of control and 123 % of control; (dose: 40.0 mg/kg/injection, schedule: Q04DX003 (ip), vehicle: saline) 119 % of control; (dose: 50.0 mg/kg/injection, schedule: Q01DX001 (ip), vehicle: Klucel (hydroxypropylcellulose) (HPC)) 123 % of control. The T/C is 156 % of control (dose: 50.0 mg/kg/injection, schedule: Q01DX001 (ip), vehicle: other); 112 % of control (dose: 75.0 mg/kg/injection, schedule: Q01DX001 (ip), vehicle: Klucel (hydroxypropylcellulose) (HPC)); 110 % of control (dose: 75.0 mg/kg/injection, schedule: Q01DX001 (ip), vehicle: other); 112 % of control (dose: 80.0 mg/kg/injection, schedule: Q01DX001 (ip), vehicle: carboxymethylcellulose (CMC)); 114 % of control (dose: 80.0 mg/kg/injection, schedule: Q01DX001 (ip), vehicle: other); 87 % of control and 91 % of control (dose: 80.0 mg/kg/injection, schedule: Q04DX003 (ip), vehicle: other).
For `CC(=O)OCCOc1cccc(C)c1`, the T/C (dose: 100.0 mg/kg/injection, schedule: Q04DX002 (ip), vehicle: saline) is 114 % of control; the T/C (dose: 200.0 mg/kg/injection, schedule: Q04DX002 (ip), vehicle: saline) is 96 % of control; the T/C (dose: 400.0 mg/kg/injection, schedule: Q04DX002 (ip), vehicle: saline) was 107 % of control.
For the compound `N#C/C(=C\C1CC(Br)CCC1O)C1CCC([N+](=O)[O-])CC1` (stereo not given), the T/C by setting is: (dose: 100.0 mg/kg/injection, schedule: Q04DX002 (ip), vehicle: saline with Tween-80) 97 % of control; (dose: 200.0 mg/kg/injection, schedule: Q04DX002 (ip), vehicle: saline with Tween-80) 86 % of control.
As for `SC1(SC2(S)CCCCC2)CCCCC1`, the T/C is 97 % of control (dose: 100.0 mg/kg/injection, schedule: Q04DX003 (ip), vehicle: saline with Tween-80); 101 % of control (dose: 200.0 mg/kg/injection, schedule: Q04DX003 (ip), vehicle: saline with Tween-80); 113 % of control (dose: 400.0 mg/kg/injection, schedule: Q04DX003 (ip), vehicle: saline with Tween-80).
For `CCCCCCCCCCCCCCCCNC(=S)Nc1ccc(C(=O)O)cc1`, the T/C was 94 % of control (dose: 12.0 mg/kg/injection, schedule: Q04DX003 (ip), vehicle: Klucel (hydroxypropylcellulose) (HPC)); 104 % of control (dose: 25.0 mg/kg/injection, schedule: Q04DX003 (ip), vehicle: Klucel (hydroxypropylcellulose) (HPC)); 102 % of control (dose: 50.0 mg/kg/injection, schedule: Q04DX003 (ip), vehicle: Klucel (hydroxypropylcellulose) (HPC)); 95 % of control (dose: 100.0 mg/kg/injection, schedule: Q01DX001 (ip), vehicle: Klucel (hydroxypropylcellulose) (HPC)); 96 % of control under setting [1]; 101 % of control (dose: 200.0 mg/kg/injection, schedule: Q01DX001 (ip), vehicle: Klucel (hydroxypropylcellulose) (HPC)). For the same compound, the T/C is, setting by setting: under setting [2], 93 % of control; (dose: 400.0 mg/kg/injection, schedule: Q01DX001 (ip), vehicle: Klucel (hydroxypropylcellulose) (HPC)) 105 % of control.
For the compound `O=C1O/C(=C(\C(=O)O)c2ccccc2)C(O)=C1c1ccccc1`, the T/C by setting is: (dose: 100.0 mg/kg/injection, schedule: Q01DX009 (ip), vehicle: Klucel (hydroxypropylcellulose) (HPC)) 113 % of control; under setting [1], 103 % of control; (dose: 200.0 mg/kg/injection, schedule: Q01DX009 (ip), vehicle: Klucel (hydroxypropylcellulose) (HPC)) 101 % of control; under setting [2], 97 % of control; (dose: 400.0 mg/kg/injection, schedule: Q01DX009 (ip), vehicle: Klucel (hydroxypropylcellulose) (HPC)) 102 % of control; (dose: 400.0 mg/kg/injection, schedule: Q04DX003 (ip), vehicle: Klucel (hydroxypropylcellulose) (HPC)) 108 % of control.
In the case of `COc1ccc(-n2cccc2/C=N\O)cc1OC`, the T/C is 89 % of control (dose: 100.0 mg/kg/injection, schedule: Q04DX002 (ip), vehicle: Klucel (hydroxypropylcellulose) (HPC)); 100 % of control (dose: 200.0 mg/kg/injection, schedule: Q04DX002 (ip), vehicle: Klucel (hydroxypropylcellulose) (HPC)); 96 % of control (dose: 400.0 mg/kg/injection, schedule: Q04DX002 (ip), vehicle: Klucel (hydroxypropylcellulose) (HPC)).
Regarding `CC(=O)OCCN1CCN(CCOC(C)=O)CC1`, the T/C reads like this: (dose: 100.0 mg/kg/injection, schedule: Q01DX001 (ip), vehicle: saline) 96 % of control; (dose: 200.0 mg/kg/injection, schedule: Q01DX001 (ip), vehicle: saline) 102 % of control; (dose: 400.0 mg/kg/injection, schedule: Q01DX001 (ip), vehicle: saline) 94 % of control.

(Values after PubChem BioAssay AID248 (DTP/NCI, 2004).)
